Common to all, as to assay: Kinase profile (33P ATP filter binding)
What all share (type): biochemical

The target in one assay is EPH-A2 (Homo sapiens, UniProt P29317). Conditions: read-out: Remaining protein kinase activity.
The target in a further assay is IRAK1 (Homo sapiens, UniProt P51617). Conditions: read-out: Remaining protein kinase activity.
In the next assay the target is SIK2 (Homo sapiens, UniProt Q9H0K1). Conditions: read-out: Remaining protein kinase activity.
The target in the next assay is T1, EPH-B2 (Homo sapiens, UniProt P29323).
T1 sequence (P29323 19-1055): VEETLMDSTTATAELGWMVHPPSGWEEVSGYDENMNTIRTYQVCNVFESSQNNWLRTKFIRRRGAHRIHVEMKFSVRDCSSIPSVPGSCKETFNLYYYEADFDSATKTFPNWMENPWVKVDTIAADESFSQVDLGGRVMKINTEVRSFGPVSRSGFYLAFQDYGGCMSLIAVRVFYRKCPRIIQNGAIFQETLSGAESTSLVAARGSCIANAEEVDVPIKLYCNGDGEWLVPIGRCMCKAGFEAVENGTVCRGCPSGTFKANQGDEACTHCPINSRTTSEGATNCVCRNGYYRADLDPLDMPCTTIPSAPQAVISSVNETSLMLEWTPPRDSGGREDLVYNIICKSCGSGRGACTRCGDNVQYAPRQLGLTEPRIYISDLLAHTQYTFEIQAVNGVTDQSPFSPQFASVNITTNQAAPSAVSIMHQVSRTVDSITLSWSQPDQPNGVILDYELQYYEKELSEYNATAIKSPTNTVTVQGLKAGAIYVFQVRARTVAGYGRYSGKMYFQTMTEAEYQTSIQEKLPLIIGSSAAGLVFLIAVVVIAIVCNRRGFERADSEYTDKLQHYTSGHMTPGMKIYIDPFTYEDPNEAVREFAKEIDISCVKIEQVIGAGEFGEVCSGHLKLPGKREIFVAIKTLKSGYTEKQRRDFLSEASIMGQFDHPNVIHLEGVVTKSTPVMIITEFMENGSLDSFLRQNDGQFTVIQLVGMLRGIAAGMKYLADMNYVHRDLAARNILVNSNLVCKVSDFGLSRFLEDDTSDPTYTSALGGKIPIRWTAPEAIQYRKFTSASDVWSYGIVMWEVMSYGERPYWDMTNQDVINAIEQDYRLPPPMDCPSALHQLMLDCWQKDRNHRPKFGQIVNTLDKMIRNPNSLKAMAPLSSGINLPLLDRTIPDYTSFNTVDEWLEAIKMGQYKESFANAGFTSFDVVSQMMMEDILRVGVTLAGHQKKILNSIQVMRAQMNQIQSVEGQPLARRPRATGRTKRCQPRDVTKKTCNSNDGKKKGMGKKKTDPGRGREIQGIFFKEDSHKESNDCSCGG

For the next assay, the target named is T2, ZAP70 (Homo sapiens, UniProt P43403).
T2 sequence (P43403 1-619): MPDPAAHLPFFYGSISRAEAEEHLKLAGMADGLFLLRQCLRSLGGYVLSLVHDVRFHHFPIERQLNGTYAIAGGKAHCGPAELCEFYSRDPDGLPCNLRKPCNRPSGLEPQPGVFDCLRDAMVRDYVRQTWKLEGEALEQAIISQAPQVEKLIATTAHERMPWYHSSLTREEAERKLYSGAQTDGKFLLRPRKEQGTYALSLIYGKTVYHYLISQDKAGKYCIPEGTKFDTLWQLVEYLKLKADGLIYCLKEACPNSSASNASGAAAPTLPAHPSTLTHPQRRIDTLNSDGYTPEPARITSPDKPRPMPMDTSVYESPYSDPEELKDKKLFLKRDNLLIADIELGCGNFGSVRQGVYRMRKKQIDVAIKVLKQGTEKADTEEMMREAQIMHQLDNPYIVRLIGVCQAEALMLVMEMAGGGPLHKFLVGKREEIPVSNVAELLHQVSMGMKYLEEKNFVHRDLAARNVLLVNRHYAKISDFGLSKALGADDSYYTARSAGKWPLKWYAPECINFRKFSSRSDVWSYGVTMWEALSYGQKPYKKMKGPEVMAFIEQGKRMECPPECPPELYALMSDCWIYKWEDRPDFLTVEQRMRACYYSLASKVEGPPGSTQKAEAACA
The note with it: read-out: Remaining protein kinase activity.

A further assay deals with CHK2 (Homo sapiens, UniProt O96017). The note with it: read-out: Remaining protein kinase activity.
Sequence of CHK2 (O96017 whole entry): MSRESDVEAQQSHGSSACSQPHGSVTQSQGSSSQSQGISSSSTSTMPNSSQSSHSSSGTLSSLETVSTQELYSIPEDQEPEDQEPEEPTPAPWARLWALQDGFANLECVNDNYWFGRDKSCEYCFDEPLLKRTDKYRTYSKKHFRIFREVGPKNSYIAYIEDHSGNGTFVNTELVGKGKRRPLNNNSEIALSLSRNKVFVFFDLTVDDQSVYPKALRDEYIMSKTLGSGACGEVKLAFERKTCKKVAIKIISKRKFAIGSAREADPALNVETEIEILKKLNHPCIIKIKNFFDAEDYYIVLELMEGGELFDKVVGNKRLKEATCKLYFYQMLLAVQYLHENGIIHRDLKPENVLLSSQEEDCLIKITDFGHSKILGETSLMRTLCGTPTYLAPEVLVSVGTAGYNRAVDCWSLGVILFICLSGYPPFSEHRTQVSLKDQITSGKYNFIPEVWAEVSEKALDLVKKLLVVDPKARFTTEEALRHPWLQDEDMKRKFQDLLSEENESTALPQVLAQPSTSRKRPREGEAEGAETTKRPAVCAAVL

Where two headings read alike, the source gives them in different places.

Sequence of EPH-A2 (P29317 24-976): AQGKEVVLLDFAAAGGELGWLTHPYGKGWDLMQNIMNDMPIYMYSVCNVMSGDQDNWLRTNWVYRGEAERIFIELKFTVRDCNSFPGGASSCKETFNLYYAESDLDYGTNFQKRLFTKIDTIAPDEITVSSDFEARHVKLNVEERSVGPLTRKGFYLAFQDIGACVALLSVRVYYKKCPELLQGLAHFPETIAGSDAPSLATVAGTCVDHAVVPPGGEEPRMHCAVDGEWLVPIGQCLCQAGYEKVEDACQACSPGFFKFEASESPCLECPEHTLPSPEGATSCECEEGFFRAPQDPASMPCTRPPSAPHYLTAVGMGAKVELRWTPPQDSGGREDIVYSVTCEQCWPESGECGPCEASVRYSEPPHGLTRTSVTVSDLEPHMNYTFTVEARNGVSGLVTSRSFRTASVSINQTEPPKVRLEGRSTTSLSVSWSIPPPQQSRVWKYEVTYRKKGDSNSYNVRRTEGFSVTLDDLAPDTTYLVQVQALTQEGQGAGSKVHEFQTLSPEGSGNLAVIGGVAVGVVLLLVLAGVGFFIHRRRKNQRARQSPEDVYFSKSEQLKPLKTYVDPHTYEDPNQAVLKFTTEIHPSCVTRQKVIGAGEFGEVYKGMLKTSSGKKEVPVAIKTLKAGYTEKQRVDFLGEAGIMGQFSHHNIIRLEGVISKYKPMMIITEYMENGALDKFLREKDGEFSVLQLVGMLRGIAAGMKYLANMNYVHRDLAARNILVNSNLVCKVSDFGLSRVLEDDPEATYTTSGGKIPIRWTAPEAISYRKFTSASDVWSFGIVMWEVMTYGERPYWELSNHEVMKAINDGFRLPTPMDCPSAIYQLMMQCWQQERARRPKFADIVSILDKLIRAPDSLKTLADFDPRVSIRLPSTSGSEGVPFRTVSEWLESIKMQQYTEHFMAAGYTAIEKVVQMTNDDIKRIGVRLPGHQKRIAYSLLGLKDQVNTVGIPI
Sequence of IRAK1 (P51617 whole entry): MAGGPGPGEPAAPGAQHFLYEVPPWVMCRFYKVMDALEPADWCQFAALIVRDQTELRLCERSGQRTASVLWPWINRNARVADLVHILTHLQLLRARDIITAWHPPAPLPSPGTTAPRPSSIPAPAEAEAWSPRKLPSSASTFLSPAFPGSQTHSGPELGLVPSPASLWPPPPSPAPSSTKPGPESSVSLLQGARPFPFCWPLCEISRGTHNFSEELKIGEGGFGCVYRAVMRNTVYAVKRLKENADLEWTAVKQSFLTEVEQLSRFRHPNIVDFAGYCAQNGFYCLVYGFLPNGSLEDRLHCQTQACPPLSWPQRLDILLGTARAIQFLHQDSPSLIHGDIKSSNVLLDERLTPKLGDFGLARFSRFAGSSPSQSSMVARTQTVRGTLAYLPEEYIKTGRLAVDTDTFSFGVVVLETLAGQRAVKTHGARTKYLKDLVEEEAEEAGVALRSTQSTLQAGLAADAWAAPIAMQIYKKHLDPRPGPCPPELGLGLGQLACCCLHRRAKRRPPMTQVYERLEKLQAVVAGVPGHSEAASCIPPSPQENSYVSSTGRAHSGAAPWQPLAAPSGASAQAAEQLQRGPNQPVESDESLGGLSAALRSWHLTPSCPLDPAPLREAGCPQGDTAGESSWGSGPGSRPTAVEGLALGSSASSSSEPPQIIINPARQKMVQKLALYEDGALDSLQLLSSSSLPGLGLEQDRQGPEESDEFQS
Sequence of SIK2 (Q9H0K1 whole entry): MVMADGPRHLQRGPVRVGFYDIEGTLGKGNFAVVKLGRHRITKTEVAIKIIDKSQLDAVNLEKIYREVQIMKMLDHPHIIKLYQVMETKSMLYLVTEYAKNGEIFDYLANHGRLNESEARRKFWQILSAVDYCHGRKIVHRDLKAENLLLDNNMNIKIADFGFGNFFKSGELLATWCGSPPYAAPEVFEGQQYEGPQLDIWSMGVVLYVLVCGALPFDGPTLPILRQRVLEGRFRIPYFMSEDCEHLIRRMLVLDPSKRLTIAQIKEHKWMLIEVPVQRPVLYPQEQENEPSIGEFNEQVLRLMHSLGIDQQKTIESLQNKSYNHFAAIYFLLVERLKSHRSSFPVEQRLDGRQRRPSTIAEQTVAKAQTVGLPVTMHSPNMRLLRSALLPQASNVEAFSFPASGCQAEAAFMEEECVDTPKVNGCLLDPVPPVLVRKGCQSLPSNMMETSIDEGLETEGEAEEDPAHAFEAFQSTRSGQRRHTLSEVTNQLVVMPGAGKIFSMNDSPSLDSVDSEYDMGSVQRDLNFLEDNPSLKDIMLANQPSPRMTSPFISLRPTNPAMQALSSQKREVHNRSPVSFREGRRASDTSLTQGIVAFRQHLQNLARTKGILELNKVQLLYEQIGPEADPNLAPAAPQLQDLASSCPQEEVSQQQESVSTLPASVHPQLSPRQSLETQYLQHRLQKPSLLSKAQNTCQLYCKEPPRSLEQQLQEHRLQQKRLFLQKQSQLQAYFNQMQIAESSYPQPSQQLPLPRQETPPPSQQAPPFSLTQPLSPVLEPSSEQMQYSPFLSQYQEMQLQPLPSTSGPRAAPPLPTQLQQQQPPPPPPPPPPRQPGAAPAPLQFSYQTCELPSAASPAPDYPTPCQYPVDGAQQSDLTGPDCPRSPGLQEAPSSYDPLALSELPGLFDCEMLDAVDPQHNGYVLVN

As a reminder, the remaining activity is the signal under treatment as a percentage of the control signal. With `COc1ccc2sc(-c3cncc(N)c3)nc2c1` [compound 1, 5-(5-Methoxybenzo[d]thiazol-2-yl)pyridin-3-amine], the remaining activity at 1 µM on EPH-A2 (EPH-A2, 1 μM) amounted to 112%; at IRAK1 (IRAK1, 1 μM) it was 95%; at SIK2 (SIK2, 1 μM), 102%; at ZAP70 (ZAP70, 1 μM) it was 119%; on CHK2 (CHK2, 1 μM) it was 114%. Moreover, the remaining activity at 100 µM stood at 90% at EPH-A2 (EPH-A2, 100 μM); 24% at IRAK1 (IRAK1, 100 μM); 10% on SIK2 (SIK2, 100 μM); 63% at ZAP70 (ZAP70, 100 μM); 52% at CHK2 (CHK2, 100 μM). Further, the “Remaining protein kinase activity” value on EPH-B2 (1 μM) came out at 136%; at EPH-B2 (100 μM), 96%.
Take `COc1ccc2sc(-c3cncc(NC(C)=O)c3)nc2c1` [PST-001, N-(5-(5-Methoxybenzo[d]thiazol-2-yl)pyridin-3-yl)acetamide]: the remaining activity at 1 µM at EPH-A2 stood at 124%; on IRAK1, 103%; at SIK2, 112%; at ZAP70, 123%; at CHK2, 105%. Further, the remaining activity at 100 µM stood at 119% on EPH-A2; 93% at IRAK1; 65% at SIK2; 131% on ZAP70; 85% on CHK2. Besides, the results for the “Remaining protein kinase activity” value at EPH-B2 (1 μM) and on EPH-B2 (100 μM) were 137% and 125%, respectively.

The values are drawn from article PMC8617627, “Novel DYRK1A Inhibitor Rescues Learning and Memory Deficits in a Mouse Model of Down Syndrome” (Pharmaceuticals, 2021).
